Data on two molecules can be found in US20200345694A1, “ANTIAGING COMPOSITION COMPRISING CYTOCHALASIN D OR SAG, AND METHOD FOR SCREENING ANTIAGING SUBSTANCE” (AMOREPACIFIC CORPORATION, priority 2017, published 2020).

Assay [1] deals with Normal human neonatal dermal fibroblasts. Briefly: Expression of primary cilia in skin cells (immunofluorescence staining with ARL13B and acetylated tubulin antibodies, confocal microscope). The following applies: 48 hours, vs control group (FIG. 1). The format is cell-based. As to the method:
Normal human neonatal dermal fibroblasts were plated in a Lab-Tex™ 2-well glass chamber slide (Thermo Scientific, Waltham, Mass., USA) with 0.5×10^5 cells per well. 24 hours later, the cells were treated with a test substance (1.5 mL of 0.2 μM cytochalasin D, or 1.5 mL of 2 μM SAG). 48 hours, the cells were immobilized and primary cilia were stained.
The primary cilia were stained with ARL13B (Proteintech) and a-acetylated tubulin (Sigma-Aldrich) antibodies. The cells were incubated overnight at 4° C. with ARL13B antibody diluted to 1/500 based on weight and a-acetylated tubulin antibody diluted to 1/1000 based on weight in a PBS buffer supplemented with 0.1% Triton™ X-100 and 5% normal goat serum. Then, the cells were treated at room temperature for 2 hours with Alexa Fluor 594 goat anti-mouse IgG and 488 goat anti-rabbit IgG (Invitrogen) as secondary antibodies. The nuclei were stained with DAPI and observed under a confocal microscope. The experiment was repeated at least twice for independent test groups.

Assay [2] concerns normal human dermal fibroblasts. The assay can be described thus: Procollagen I secreted to the medium of fibroblasts, measured by western blotting. The format is cell-based. The following applies: 48 hours, vs control group (FIG. 2). Here is the method:
It was investigated whether the increase in primary cilia leads to increased secretion of procollagen to the medium.
Specifically, normal human dermal fibroblasts were cultured in DMEM supplemented with 10% FBS (fetal bovine serum), 100 mg/L streptomycin and 100,000 U/L penicillin. The cultured fibroblasts seeded onto a 6-well plate with 1×10^5 cells per well and 1.5 mL of a medium containing 0.2 μM cytochalasin D or 2 pM SAG as a test substance was added 24 hours later. This leads to increased expression of primary cilia as in Test Example 1. 48 hours after the treatment with the test substance, the medium was collected and the amount of procollagen I in the medium was measured by western blotting. The procollagen I antibody was purchased from Developmental Studies Hybridoma Bank and diluted in a PBS buffer containing 0.1% Trito™ X-100 and 5% normal goat serum to 1/10000 based on weight. As a control group (loading control), electrophoresed polyacrylamide gel was stained with 0.05% Coomassie blue and then observed. The experiment was repeated at least twice for independent test groups.

Turning to `CN[C@H]1CC[C@H](N(Cc2cccc(-c3ccncc3)c2)C(=O)c2sc3ccccc3c2Cl)CC1` [SAG, 3-chloro-N-[trans-4-(methylamino)cyclohexyl]-N-[[3-(4-pyridinyl)phenyl]methyl]benzo[b]thiophene-2-carboxamide], the “primary cilia of fibroblasts” value in assay [1] (2 μM SAG) is given as “increased”. Further, in assay [2] (2 pM SAG (so in the source)), the “amount of procollagen in fibroblasts (procollagen I in the medium)” value is reported as “increased”.

For the molecule `C=C1C(O)[C@@H]2/C=C/C[C@H](C)C(=O)[C@](C)(O)/C=C/[C@H](OC(C)=O)[C@]23C(=O)N[C@@H](Cc2ccccc2)[C@@H]3[C@@H]1C` (stereo partly shown) [cytochalasin D], the “primary cilia of fibroblasts” value in assay [1] (0.2 μM cytochalasin D) was “increased”. Further, the “amount of procollagen in fibroblasts (procollagen I in the medium)” value in assay [2] (0.2 μM cytochalasin D) was “increased”.
